Results: US5208135A, “Preparation and use of dyes” (Minnesota Mining and Manufacturing Company, priority 1990, dated 1993)

Experiments:
[1] = Sensitisation of acrylate polymerisation: tungsten light exposure of laminate, acetone development (Example 4); details: coating; for Acetone Solubility After Exposure: after exposure to 250W tungsten light source for 30 seconds
Experimental: The ability of Dye C of the invention and Control Dyes 1 and 2 to sensitise acrylate polymerisation was evaluated by the following protocol.
A solution of Dye C (0.lg), pentaerythritol tetraacrylate monomer (0.6g), commercially available from Ancomer Chemicals under the trade designation ATM 11, 4-butoxyphenyl phenyl iodonium trifluoroacetate (0.125g) shown below as IOD J, and poly(vinyl butyral) (Butvar B-76) (0.6 g), was made in butanone (95 g) in conditions of diminished light. [drawing 30]
The solution was coated onto 0.01 cm unsubbed poly(ethylene terephthalate) (PET) base at a wet thickness of 24μm and dried. A laminate was prepared by covering the monomer coating with a second 0.01 cm PET sheet by cold pressure rolling. The laminate was imagewise exposed to a 250W tungsten light source for 30 seconds using the stage of an overhead projector. […] Stripping of the cover sheet was more readily completed in exposed areas, whereas, in unexposed areas the monomer coatings partially adhered to the cover sheet. The latent image was developed by immersion in acetone, wherein exposed areas remained adhered to the PET base and unexposed areas were rapidly dissolved to obtain a relief image.

[2] = Dye stability on storage in light-tight envelope at room temperature; assay type: physicochemical; details: for Loss of optical density after storage (thermal bleaching): Example 5 coating, 24 hour storage, light-tight envelope; for Loss of optical density after storage (thermal bleaching) / Loss of dye density during storage / Dye Stability: OD at Day 0 / Dye Stability: OD at Day 7: room temperature; for Loss of dye density during storage: less than 24 hours; for Dye Stability: OD at Day 0 / Dye Stability: OD at Day 7: lighttight envelope
Experimental: However, both Control Dyes 1 and 2 are readily bleached during storage with an 80% loss of dye density in less than 24 hours. Thus the dyes of the invention show increased stability compared with the control dyes.
*Storage is conducted in a lighttight envelope at room temperature.

[3] = Absorption maximum and optical density of dye; assay type: physicochemical; details: for λmax: Table 1
Experimental: The solution was coated using K-bar 3 onto unsubbed 0.01 cm PET base and the resulting coating dried for 1 hour at 30° C. ("K-bars" are wire wound coating rods manufactured by R.K. Print-Coat Instrument Ltd.) The dried coating was topcoated with an aqueous solution of poly(vinyl alcohol) (8%) containing Tergitol TMN-10, commercially available from Union Carbide, using K-Bar 8 (10 ml 8% poly(vinyl alcohol) containing 1 ml 10% Tergitol TMN-10). The top coating was dried for 12 hours at 30° C. to provide a PVA oxygen-impermeable barrier layer over the photopolymer layer. The inclusion of a PVA barrier layer provides a more controlled imaging element for the evaluation of dye sensitised photopolymerisation than the composite of the previous Example.

Row | Compound | Acetone Solubility After Exposure [1] | Acetone Solubility Before Exposure [1] | Loss of optical density after storage (thermal bleaching) [2] | Loss of dye density during storage ([2]; laminate) | Dye Stability: OD at Day 0 [2] | Dye Stability: OD at Day 7 [2] | λmax [3] | Absorption maximum in coating ([3]; dried coating of Example 5) | OD at the absorption maximum ([3]; dried coating of Example 5, at 803 nm) | Imaging characteristics after storage ([2]; laminate, light tight envelope, 7 days, room temperature prior to exposure)
1 | CCOC(=O)C(C#N)=CC=CC=CC=CC(C#N)=C(O)OCC [Control Dye 1] | Yes | Yes | lost substantially all optical density | 80% | 1.3 | 0.1 | 650 nm | – | – | –
2 | O=C1C(=CC=CC=CC=CC2=C(O)c3ccccc3C2=O)C(=O)c2ccccc21 [Control Dye 2] | Yes | Yes | lost substantially all optical density | 80% | 1.5 | 0.1 | 760 nm | – | – | –
3 | N#CC(C#N)=C1C(=CC=CC=CC2=C(O)c3ccccc3C2=C(C#N)C#N)C(=O)c2ccccc21 [Dye B] | – | – | – | – | – | – | – | 803 nm | 0.39 | –
4 | N#CC(C#N)=C1C(=CC=CC=CC2=C(O)c3c(cccc3[N+](=O)[O-])C2=C(C#N)C#N)C(=O)c2c1cccc2[N+](=O)[O-] [Dye C] | No | Yes | – | – | 0.8 | 0.8 | 815 nm | – | – | unchanged imaging characteristics
